Measured values reported in patent US9296741B2, “Bromodomain inhibitors” (priority 2012, dated 2016).

What was measured:
[1] = test system: LPS induced IL-6 production; experiment: LPS (lipopolysaccharide) induced IL-6 production mouse assay; assay type: in vivo; conditions: 1 h before LPS, serum IL-6 2 h after LPS; for inhibition in vivo at 3 mg/kg: Mus musculus, read-out: Inhibition of LPS induced IL-6 production in Mice, % inhibition at 3 mg/kg, 3 mg/kg oral
[2] = Rat liver microsome stability assay; assay type: in vitro ADME; conditions: rat liver microsomes (male Sprague-Dawley), 0.5 μM test compound, 0.25 mg/mL microsomal protein, pH 7.4, 37° C.; read-out: Stability in rat liver microsomes (t1/2 in minutes)
[3] = test system: breast cancer cell line MX-1; experiment: MX-1 cell line proliferation assay; assay type: cell-based, human; conditions: Homo sapiens, MX1, 72 h; MX-1 cells, 3-day proliferation, Cell Titer Glo; read-out: Cellular proliferation: EC50
[4] = Mouse liver microsome stability assay; assay type: in vitro ADME; conditions: male, CD1, mouse, microsomes, pH 7.4
[5] = Human liver microsome stability assay; assay type: in vitro ADME; conditions: both sexes, human, microsomes, pH 7.4
[6] = target: human BRD4 first bromodomain (BDI_K57-E168) (Homo sapiens (Human), UniProt O60885); experiment: TR-FRET bromodomain binding assay, BRD4 first bromodomain
[7] = target: human BRD4 second bromodomain (BDII_E352-M457) (Homo sapiens (Human), UniProt O60885); experiment: TR-FRET bromodomain binding assay, BRD4 second bromodomain

Compound | inhibition in vivo at 3 mg/kg [1] [%] | half-life at 0.5 μM [2] [min] | EC50 [3] [nM] | half-life at 0.5 μM [4] [min] | half-life at 0.5 μM [5] [min] | Ki [6] [nM] | Ki [7] [nM] | Inhibition of LPS induced IL-6 production in Mice, % inhibition at 30 mg/kg ([1]; 30 mg/kg oral) [% at 30 mg/kg]
Cn1cc(-c2cc(NS(C)(=O)=O)ccc2Oc2ccccc2C(F)(F)F)c2cc[nH]c2c1=O [Example 32, N-{3-(6-methyl-7-oxo-6,7-dihydro-1H-pyrrolo[2,3-c]pyridin-4-yl)-4-[2-(trifluoromethyl)phenoxy]phenyl}methanesulfonamide] | 69 | 82 | 83.3 | 32 | 24 | 16 | 7.5 | 
Cn1cc(-c2cc(NS(C)(=O)=O)ccc2Oc2ccc(F)cc2Cl)c2cc[nH]c2c1=O [Example 34, N-[4-(2-chloro-4-fluorophenoxy)-3-(6-methyl-7-oxo-6,7-dihydro-1H-pyrrolo[2,3-c]pyridin-4-yl)phenyl]methanesulfonamide] | 78 | 42 | 26.8 | 35 | 37 | 3.5 | 2.1 | 
Cn1cc(-c2cc(NS(C)(=O)=O)ccc2Oc2ccc(F)c(F)c2)c2cc[nH]c2c1=O [Example 48, N-[4-(3,4-difluorophenoxy)-3-(6-methyl-7-oxo-6,7-dihydro-1H-pyrrolo[2,3-c]pyridin-4-yl)phenyl]methanesulfonamide] | 62 | 32 | 23.5 | 35 | 37 | 2.3 | 3.3 | 
Cn1cc(-c2cc(NS(C)(=O)=O)ccc2Oc2c(F)cc(F)cc2F)c2cc[nH]c2c1=O [Example 49, N-[3-(6-methyl-7-oxo-6,7-dihydro-1H-pyrrolo[2,3-c]pyridin-4-yl)-4-(2,4,6-trifluorophenoxy)phenyl]methanesulfonamide] | 57 | 51 | 19.6 | 46 | 71 | 1.7 | 1.5 | 
Cn1cc(-c2cc(C(=O)N3CCOCC3)ccc2Oc2ccc(F)cc2F)c2cc[nH]c2c1=O [Example 56, 4-[2-(2,4-difluorophenoxy)-5-(morpholin-4-ylcarbonyl)phenyl]-6-methyl-1,6-dihydro-7H-pyrrolo[2,3-c]pyridin-7-one] | 28 | 30 | 251 | 36 | 39 | 12.2 | 2.4 | 
Cn1cc(-c2cc(NS(C)(=O)=O)ccc2OC2CCC(F)(F)CC2)c2cc[nH]c2c1=O [Example 59, N-{4-[(4,4-difluorocyclohexyl)oxy]-3-(6-methyl-7-oxo-6,7-dihydro-1H-pyrrolo[2,3-c]pyridin-4-yl)phenyl}methanesulfonamide] | 54 | 40 | 18.7 | 23 | > 120 | 0.84 | 1.6 | 
CCS(=O)(=O)Nc1ccc(Oc2c(F)cc(F)cc2F)c(-c2cn(C)c(=O)c3[nH]ccc23)c1 [Example 62, N-[3-(6-methyl-7-oxo-6,7-dihydro-1H-pyrrolo[2,3-c]pyridin-4-yl)-4-(2,4,6-trifluorophenoxy)phenyl]ethanesulfonamide] | 67 | 45 | 7.9 | 25 | 64 | 3 | 1.9 | 
CNS(=O)(=O)Nc1ccc(Oc2ccc(F)cc2F)c(-c2cn(C)c(=O)c3[nH]ccc23)c1 [Example 65, N-[4-(2,4-difluorophenoxy)-3-(6-methyl-7-oxo-6,7-dihydro-1H-pyrrolo[2,3-c]pyridin-4-yl)phenyl]-N′-methylsulfuric diamide] | 63 | > 120 | 25.5 | 11 | 88 | 11.6 | 4.9 | 
Cn1nc(-c2cc(NS(C)(=O)=O)ccc2Oc2ccccc2)c2cc[nH]c2c1=O [Example 80, N-[3-(6-methyl-7-oxo-6,7-dihydro-1H-pyrrolo[2,3-d]pyridazin-4-yl)-4-phenoxyphenyl]methanesulfonamide] |  | 2 | 62 | 31 | 62 | 9.1 | 6.1 | 69
CCS(=O)(=O)Nc1ccc(Oc2ccc(C(N)=O)cc2)c(-c2cn(C)c(=O)c3[nH]ccc23)c1 [Example 84, 4-{4-[(ethylsulfonyl)amino]-2-(6-methyl-7-oxo-6,7-dihydro-1H-pyrrolo[2,3-c]pyridin-4-yl)phenoxy}benzamide] | 69 | 92 | 231 | > 120 | 112 | 1.67 | 0.65 | 
Cn1cc(-c2cc(S(C)(=O)=O)ccc2Oc2ccccc2)c2cc[nH]c2c1=O [Example 85, 6-methyl-4-[5-(methylsulfonyl)-2-phenoxyphenyl]-1,6-dihydro-7H-pyrrolo[2,3-c]pyridin-7-one] | 80 | 6 | 52 | 34 | 43 | 6.4 | 1.7 | 
Cn1cc(-c2cc(S(C)(=O)=O)ccc2Oc2ccc(F)cc2F)c2cc[nH]c2c1=O [Example 138, 4-[2-(2,4-difluorophenoxy)-5-(methylsulfonyl)phenyl]-6-methyl-1,6-dihydro-7H-pyrrolo[2,3-c]pyridin-7-one] | 72 | 51 | 85.1 | 45 | 52 | 16.7 | 9.5 | 
CCS(=O)(=O)Nc1ccc(OCC(C)(C)C)c(-c2cn(C)c(=O)c3[nH]ccc23)c1 [Example 144, N-[4-(2,2-dimethylpropoxy)-3-(6-methyl-7-oxo-6,7-dihydro-1H-pyrrolo[2,3-c]pyridin-4-yl)phenyl]ethanesulfonamide] | 48 | 19 | 76.9 | 17 | 18 | 13.6 | 17.8 | 
Cn1cc(-c2cc(S(C)(=O)=O)ccc2NC2CCCCC2)c2cc[nH]c2c1=O [Example 147, 4-[2-(cyclohexylamino)-5-(methylsulfonyl)phenyl]-6-methyl-1,6-dihydro-7H-pyrrolo[2,3-c]pyridin-7-one] | 61 | 8 | 14.8 | 32 | 11 | 2.1 | 1.1 | 
Cn1cc(-c2cc(S(C)(=O)=O)ccc2Oc2ccc(Cl)cc2)c2cc[nH]c2c1=O [Example 154, 4-[2-(4-chlorophenoxy)-5-(methylsulfonyl)phenyl]-6-methyl-1,6-dihydro-7H-pyrrolo[2,3-c]pyridin-7-one] | 73 | 66 | 65.5 | 18 | 42 | 20.8 | 13.1 | 
Cn1nc(-c2cc(NS(C)(=O)=O)ccc2Oc2ccc(F)cc2F)c2cc[nH]c2c1=O [Example 159, N-[4-(2,4-difluorophenoxy)-3-(6-methyl-7-oxo-6,7-dihydro-1H-pyrrolo[2,3-d]pyridazin-4-yl)phenyl]methanesulfonamide] | 58 | 107 | 62.4 | 59 | 89 | 37 | 20.7 | 
Cn1cc(-c2cc(S(C)(=O)=O)ccc2Oc2ccc3ncccc3c2)c2cc[nH]c2c1=O [Example 162, 6-methyl-4-[5-(methylsulfonyl)-2-(quinolin-6-yloxy)phenyl]-1,6-dihydro-7H-pyrrolo[2,3-c]pyridin-7-one] | 41 | 41 | 127 | 11 | 96 | 11.1 | 4.6 | 
Cn1cc(-c2cc(S(C)(=O)=O)ccc2Oc2cccc(N)c2)c2cc[nH]c2c1=O [Example 166, 4-[2-(3-aminophenoxy)-5-(methylsulfonyl)phenyl]-6-methyl-1,6-dihydro-7H-pyrrolo[2,3-c]pyridin-7-one] | 44 | 23 | 48.2 | 22 | 85 | 10.9 | 3.6 | 
CCS(=O)(=O)c1ccc(Oc2ccc(F)cc2F)c(-c2cn(C)c(=O)c3[nH]ccc23)c1 [Example 168, 4-[2-(2,4-difluorophenoxy)-5-(ethylsulfonyl)phenyl]-6-methyl-1,6-dihydro-7H-pyrrolo[2,3-c]pyridin-7-one] | 70 | 82 | 27.7 | 25 | 66 | 5.4 | 1.3 | 
